Laboratory results as given in patent US10919934B2, “Compositions and methods for managing respiratory conditions” (Emory University, priority 2017, dated 2021).
Where a SMILES comes first, the peptide text is derived from it.

How the values were obtained:
[1] = system: alcohol-exposed AECs; experiment: Quantification of % cells with 3 or more tight-junction spikes, alcohol-exposed AECs; type: cell-based, rat; conditions: for tight junction spikes versus control shRNA: alcohol exposed AECs transduced with lentiviral shRNA
Method: Morphologic disruption of tight junctions was not restricted to claudin-18, as claudin-5 and ZO-1 were also impaired in YFP-claudin-5-transduced AECs. To determine whether ZO-1 disruption was specifically linked to increased claudin-5, the effect of increased YFP-claudin-3 on ZO-1 localization by AECs was examined. […] In a complementary experiment, it was determined whether the ability of alcohol to induce formation of tight-junction spikes was antagonized by depleting claudin-5 using shRNA. […] Thus, claudin-5 was […] to enhance formation of tight-junction spikes.
(§1) To further confirm that spikes were sites of active claudin vesicle formation and fusion, the effects of the dynamin inhibitor Dynasore14 was examined on spike formation by alcohol-exposed AECs.

[2] = system: control AECs; experiment: Quantification of % cells with 3 or more tight-junction spikes, control AECs; type: cell-based, rat; conditions: Dynasore treatment
Excerpt: as §1

[3] = system: alcohol-exposed AECs; experiment: Live-cell imaging of YFP-claudin-18 in alcohol-exposed AECs; type: cell-based, rat; conditions: Dynasore-treated alcohol-exposed AECs
Excerpt: as §1

[4] = system: alcohol-exposed AECs; experiment: Transepithelial resistance (TER), alcohol-exposed AECs; type: cell-based, rat; conditions: 10 mM peptide, 16 h (overnight); alcohol-exposed AECs on Transwell
Method: (§2) AECs isolated from control were cultured on Transwell permeable supports for 5 days and then either untreated (un), or incubated with 10 mM control peptide (con; Ac-LYQY(SEQ ID NO:35)-NH2) or a claudin-5 extracellular domain mimetic peptide (C5; Ac-EFYDP(SEQ ID NO:1)-NH2) for 16 h. The cells were examined for barrier function by transepithelial resistance (TER).
(§3) The difference between AECs isolated from control- and alcohol-fed animals (alcohol-exposed AECs) was evaluated using two different measures of barrier function: transepithelial resistance (TER) and paracellular flux to soluble tracer molecules. […] Thus, alcohol exposure has a deleterious effect on AEC tight junctions.

[5] = system: control AECs; experiment: Transepithelial resistance (TER), control AECs; type: cell-based, rat; conditions: 10 mM peptide, 16 h
Method: as §2, §3

[6] = system: alcohol-exposed AECs; experiment: Paracellular flux of tracers, alcohol-exposed AECs; type: cell-based, rat; conditions: 10 mM peptide, 16 h
Method: as §3

[7] = system: control AECs; experiment: Paracellular flux of tracers, control AECs; type: cell-based, rat; conditions: 10 mM peptide, 16 h
Method: as §3

[8] = biological target: T1, claudin-5 (Rattus norvegicus, UniProt Q9JKD6); experiment: Immunoblot for claudin-5, alcohol-exposed AECs; type: cell-based; conditions: peptide-treated cells from alcohol-fed rats; P=0.042 versus untreated, P=0.016 versus control
T1 construct: endogenous in cells; host or cells: primary alveolar epithelial cells (AECs) from alcohol-fed rats
T1 sequence (Q9JKD6 1-218): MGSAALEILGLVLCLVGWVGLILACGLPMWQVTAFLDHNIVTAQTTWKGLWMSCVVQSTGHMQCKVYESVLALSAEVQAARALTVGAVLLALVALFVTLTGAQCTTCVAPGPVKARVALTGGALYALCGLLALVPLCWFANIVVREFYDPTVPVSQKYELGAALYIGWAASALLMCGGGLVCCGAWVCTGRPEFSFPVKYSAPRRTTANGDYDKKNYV

[9] = biological target: T2, claudin-18 (Rattus norvegicus, UniProt Q5I0E5); experiment: Immunoblot for claudin-18, alcohol-exposed AECs; type: cell-based; conditions: peptide-treated alcohol-exposed AECs
T2 construct: endogenous in cells; host or cells: primary alveolar epithelial cells (AECs) from alcohol-fed rats
T2 sequence (Q5I0E5 1-261): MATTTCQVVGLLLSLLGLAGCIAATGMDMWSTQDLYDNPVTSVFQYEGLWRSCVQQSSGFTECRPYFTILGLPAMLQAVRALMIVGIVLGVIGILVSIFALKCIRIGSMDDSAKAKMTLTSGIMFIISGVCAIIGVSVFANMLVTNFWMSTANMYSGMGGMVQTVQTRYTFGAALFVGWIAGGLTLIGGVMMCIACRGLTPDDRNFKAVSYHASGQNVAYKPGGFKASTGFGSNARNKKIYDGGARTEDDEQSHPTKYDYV

[10] = system: ZO-1; experiment: Immunoblot for ZO-1, alcohol-exposed AECs; type: cell-based, rat; conditions: peptide-treated alcohol-exposed AECs
[11] = system: claudin-1; experiment: Claudin-1 content, alcohol-exposed AECs; type: cell-based, rat; conditions: peptide-treated alcohol-exposed AECs
Excerpt: By contrast, control AECs were unaffected by the Ac-EFYDP(SEQ ID NO: 1)-NH2 peptide (FIG. 7A, C, E). A control peptide, Ac-LYQY (SEQ ID NO:35)-NH2, had no effect on AEC barrier function in either control or alcohol-exposed cells. The ability of Ac-EFYDP(SEQ ID NO: 1)-NH2 to improve the barrier function of alcohol-exposed AECs correlated with a decrease in tight-junction spike formation (FIG. 7G) and a specific decrease in total claudin-5 content (FIG. 7I). Claudin-18 and ZO-1 were unaffected (FIG. 7I) as was claudin-1.

[12] = system: claudin-3 and claudin-4; conditions: cited from earlier work
[13] = system: control AECs; conditions: normal AECs treated with inhibitor; cited from earlier work
[14] = system: claudin-5; conditions: normal AECs treated with inhibitor; cited from earlier work

O=C(NN=Cc1ccc(O)c(O)c1)c1cc2ccccc2cc1O [Dynasore, N′-(3,4-dihydroxybenzylidene)-3-hydroxy-2-naphthohydrazide]
% cells containing 3 or more tight junction spikes oriented towards the nucleus ([1]; 160 μM for 4 h, cells from alcohol fed rats, P=0.002): significantly decreased | spike formation by control cells [2]: did not have a significant effect | punctate YFP-claudin-18 labelling [3]: increase

CC(=O)NC(CCC(=O)O)C(=O)NC(Cc1ccccc1)C(=O)NC(Cc1ccc(O)cc1)C(=O)NC(CC(=O)O)C(=O)N1CCCC1C(N)=O (stereo not shown) [Ac-EFYDP(SEQ ID NO: 1)-NH2, Ac-EFYDP(SEQ ID NO:1)-NH2] (Ac-EFYDP-NH2; configuration not given here)
tight-junction spike formation ([1]; peptide-treated alcohol-exposed AECs, P<0.001 versus untreated and control peptide): decrease | TER [4]: increase | TER [5]: unaffected | paracellular flux of 10 kDa Texas Red dextran [6]: decrease | paracellular flux of calcein [6]: decrease | paracellular flux of 10 kDa Texas Red dextran [7]: unaffected | paracellular flux of calcein [7]: unaffected | total claudin-5 content (immunoblot) [8]: significant and specific decrease | claudin-18 content (immunoblot) [9]: unaffected | ZO-1 content (immunoblot) [10]: unaffected | claudin-1 content [11]: unaffected

Ac-DFYNP-NH2
effectiveness of D-amino acid version relative to corresponding L-amino acid version [12]: 10-100 fold

Ac-LYQY(SEQ ID NO:35)-NH2 (Ac-LYQY-NH2) [Ac-LYQY (SEQ ID NO:35)-NH2, control peptide, reference compound]
TER [4]: no effect | TER [5]: no effect | paracellular flux of 10 kDa Texas Red dextran [6]: no effect | paracellular flux of calcein [6]: no effect | paracellular flux of 10 kDa Texas Red dextran [7]: no effect | paracellular flux of calcein [7]: no effect

Cc1ccc2nc(NCCN)c3ncc(C)n3c2c1 [BMS-345541]
formation of tight-junction spikes [13]: increased | claudin-5 expression [14]: increased

B1: claudin-5 shRNA1: lentiviral short hairpin RNA targeting claudin-5, 616-624, SEQ ID NO: 27/28 (nucleic acid)
chain 1: CCCCCCAACGGCGATTACGACAATTCAAGAGATTGTCGTAATCGCCGTTGGTTTTTGG
chain 2: CCAAAAACCAACGGCGATTACGACAATCTCTTGAATTGTCGTAATCGCCGTTGGGGGG
tight junction spikes versus control shRNA [1]: significantly fewer

B2: shRNA2: lentiviral short hairpin RNA targeting claudin-5, 1594-1612, SEQ ID NO: 29/30 (nucleic acid)
chain 1: CCCCCCACCAAACTGCCGCTAACTTCAAGAGAGTTAGCGGCAGTTTGGTGGTTTTTGG
chain 2: CCAAAAACCACCAAACTGCCGCTAACTCTCTTGAAGTTAGCGGCAGTTTGGTGGGGGG
tight junction spikes versus control shRNA [1]: trend towards decreased spikes
